# Laboratory results taken from publication PMC6325200, “Effects of Microplate Type and Broth Additives on Microdilution MIC Susceptibility Assays” (Antimicrobial Agents and Chemotherapy, 2018).
# Experiments:
# [1] = tested on: E. coli ATCC 25922; test: microbe, parasite or virus in culture; details: Escherichia coli, n = 2
# Outline: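 Broth microdilution with 2-fold serial compound dilutions in MH broth, using cultures diluted 40-fold and grown at 37°C for 2 to 3 h, with or without Tween. Variants included 2% beractant added to mid-log cultures, or 50% human serum in MHB.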
# [2] = tested on: E. coli; details: literature value; cited from earlier work
# [3] = tested on: MRSA; details: literature value; cited from earlier work
# From the text: TABLE 1 Literature MIC values for tested antibiotics | column: MIC (µg/ml) (reference[s]) / MRSA
# [4] = tested on: MSSA S. aureus ATCC 25923; test: microbe, parasite or virus in culture; details: Staphylococcus aureus, n = 2
# Outline: (§1)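 First, a sample of each culture was diluted 40-fold in fresh Mueller-Hinton broth containing or lacking Tween. Next, this was incubated 2 to 3 h at 37°C. Compounds, alongside comparator antibiotics, were tested as 2-fold serial dilutions on 96-well plates.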
# [5] = tested on: S. pneumoniae ATCC 33440; test: microbe, parasite or virus in culture; details: Streptococcus pneumoniae, n = 2
# Outline: as §1
# [6] = tested on: S. pneumoniae ATCC 700677 (MDR); test: microbe, parasite or virus in culture; details: Streptococcus pneumoniae, ATCC700677
# Outline: as §1
# [7] = tested on: E. faecalis ATCC 29212; test: microbe, parasite or virus in culture; details: Enterococcus faecalis, n = 2
# Outline: as §1
# [8] = tested on: P. aeruginosa ATCC 10145; test: microbe, parasite or virus in culture; details: Pseudomonas aeruginosa, n = 2
# Outline: as §1
# [9] = tested on: S. aureus GISA NRS 2; ATCC 700698; test: microbe, parasite or virus in culture; details: Staphylococcus aureus, n = 2
# Outline: as §1
smiles,measurement,setting,value
"O=C(O)c1cn(C2CC2)c2cc(N3CCNCC3)c(F)cc2c1=O [Ciprofloxacin, ciprofloxacin]",MIC,"[1]; ATCC25922, 24 h, Corning NBS, MH + 2% LHB, 2% LS",0.03 to 0.06 µg/mL
same,MIC,"[1]; ATCC25922, 24 h, Corning NBS, MH + 2% LHB, 50% HS",≤ 0.03 µg/mL
same,MIC,"[1]; ATCC25922, 24 h, Corning NBS, MH + 2% LHB, no additive",≤ 0.03 µg/mL
same,MIC,"[1]; ATCC25922, 24 h, Corning NBS, MH + T80, 2% LS",≤ 0.03 µg/mL
same,MIC,"[1]; ATCC25922, 24 h, Corning NBS, MH + T80, 50% HS",≤ 0.03 µg/mL
same,MIC,"[1]; ATCC25922, 24 h, Corning PS, MH + 2% LHB, 2% LS",≤ 0.03 µg/mL
same,MIC,"[1]; ATCC25922, 24 h, Corning PS, MH + 2% LHB, 50% HS",≤ 0.03 µg/mL
same,MIC,"[1]; ATCC25922, 24 h, Corning PS, MH + 2% LHB, no additive",≤ 0.03 µg/mL
same,MIC,"[1]; ATCC25922, 24 h, Corning PS, MH + T80, 2% LS",≤ 0.03 µg/mL
same,MIC,"[1]; ATCC25922, 24 h, Corning PS, MH + T80, 50% HS",≤ 0.03 µg/mL
same,MIC,"[1]; ATCC25922, 24 h, Corning TC, MH + 2% LHB, 2% LS",≤ 0.03 µg/mL
same,MIC,"[1]; ATCC25922, 24 h, Corning TC, MH + 2% LHB, 50% HS",≤ 0.03 µg/mL
same,MIC,"[1]; ATCC25922, 24 h, Corning TC, MH + 2% LHB, no additive",≤ 0.03 µg/mL
same,MIC,"[1]; ATCC25922, 24 h, Corning TC, MH + T80, 2% LS",≤ 0.03 µg/mL
same,MIC,"[1]; ATCC25922, 24 h, Corning TC, MH + T80, 50% HS",≤ 0.03 µg/mL
same,MIC,"[1]; ATCC25922, 24 h, Trek PS, MH + 2% LHB, 2% LS",≤ 0.03 µg/mL
same,MIC,"[1]; ATCC25922, 24 h, Trek PS, MH + 2% LHB, 50% HS",≤ 0.03 µg/mL
same,MIC,"[1]; ATCC25922, 24 h, Trek PS, MH + 2% LHB, no additive",0.03 to 0.06 µg/mL
same,MIC,"[1]; ATCC25922, 24 h, Trek PS, MH + T80, 2% LS",≤ 0.03 µg/mL
same,MIC,"[1]; ATCC25922, 24 h, Trek PS, MH + T80, 50% HS",≤ 0.03 µg/mL
same,MIC,"[1]; ATCC25922, Corning NBS plate, MHB +0.002% T80, no further additive",≤ 0.03 µg/mL
same,MIC,"[1]; ATCC25922, Corning NBS plate, MHB −T80, no additive",≤ 0.03 µg/mL
same,MIC,"[1]; ATCC25922, Corning NBS, MH, 2% LS",≤ 0.03 µg/mL
same,MIC,"[1]; ATCC25922, Corning NBS, MH, 50% HS",≤ 0.03 µg/mL
same,MIC,"[1]; ATCC25922, Corning PS plate, MHB +0.002% T80, no further additive",≤ 0.03 µg/mL
same,MIC,"[1]; ATCC25922, Corning PS plate, MHB −T80, no additive",≤ 0.03 µg/mL
same,MIC,"[1]; ATCC25922, Corning PS, MH, 2% LS",≤ 0.03 µg/mL
same,MIC,"[1]; ATCC25922, Corning PS, MH, 50% HS",≤ 0.03 µg/mL
same,MIC,"[1]; ATCC25922, Corning TC plate, MHB +0.002% T80, no further additive",≤ 0.03 µg/mL
same,MIC,"[1]; ATCC25922, Corning TC plate, MHB −T80, no additive",≤ 0.03 µg/mL
same,MIC,"[1]; ATCC25922, Corning TC, MH, 2% LS",≤ 0.03 µg/mL
same,MIC,"[1]; ATCC25922, Corning TC, MH, 50% HS",≤ 0.03 µg/mL
same,MIC,"[1]; ATCC25922, Nunc PS plate, MHB −T80",≤ 0.03 µg/mL
same,MIC,"[1]; ATCC25922, Nunc U TC plate, MHB +0.002% T80",≤ 0.03 µg/mL
same,MIC,"[1]; ATCC25922, Nunc U TC plate, MHB −T80",≤ 0.03 µg/mL
same,MIC,"[1]; ATCC25922, Nunc flat TC plate, MHB +0.002% T80",≤ 0.03 µg/mL
same,MIC,"[1]; ATCC25922, Nunc flat TC plate, MHB −T80",≤ 0.03 µg/mL
same,MIC,"[1]; ATCC25922, Trek PS plate, MHB +0.002% T80, no further additive",≤ 0.03 µg/mL
same,MIC,"[1]; ATCC25922, Trek PS plate, MHB −T80, no additive",≤ 0.03 µg/mL
same,MIC,"[1]; ATCC25922, Trek PS, MH, 2% LS",≤ 0.03 µg/mL
same,MIC,"[1]; ATCC25922, Trek PS, MH, 50% HS",≤ 0.03 µg/mL
same,MIC (literature),[2],"0.03–0.06 ([64], [65]) µg/ml"
same,MIC (literature),[3],0.5 ([63]) µg/ml
same,MIC,"[4]; Corning NBS, MHB +T80",0.5 to 1 µg/mL
same,MIC,"[4]; Corning PS, MHB +T80",0.5 µg/mL
same,MIC,"[4]; Corning PS, MHB -T80",0.25 to 0.5 µg/mL
same,MIC,"[4]; Corning TC, MHB +T80",0.5 to 1 µg/mL
same,MIC,"[5]; ATCC33440, Corning NBS, MHB +T80",0.25 to 1 µg/mL
same,MIC,"[5]; ATCC33440, Corning PS, MHB -T80",0.25 to 0.5 µg/mL
same,MIC,"[5]; ATCC33440, Corning TC, MHB +T80",0.25 to 0.5 µg/mL
same,MIC,"[5]; ATCC33440, Corning TC, MHB -T80",0.25 to 0.5 µg/mL
same,MIC,[6],0.5 to 1 µg/mL
same,MIC,"[7]; ATCC29212, Corning NBS, MHB +T80",2 µg/mL
same,MIC,"[7]; ATCC29212, Corning NBS, MHB -T80",2 µg/mL
same,MIC,"[7]; ATCC29212, Corning TC, MHB +T80",0.5 to 1 µg/mL
same,MIC,"[7]; ATCC29212, Corning TC, MHB -T80",0.25 µg/mL
same,MIC,"[8]; ATCC10145, Corning PS, MHB +T80",0.25 to 0.5 µg/mL
same,MIC,"[8]; ATCC10145, Corning TC, MHB +T80",0.25 to 0.5 µg/mL
same,MIC,"[8]; ATCC10145, Corning TC, MHB -T80",≤ 0.03 µg/mL
same,MIC,"[9]; Corning NBS, MHB +T80",64 µg/mL
same,MIC,"[9]; Corning NBS, MHB -T80",64 µg/mL
same,MIC,"[9]; Corning PS, MHB +T80",64 µg/mL
same,MIC,"[9]; Corning TC, MHB +T80",64 µg/mL
same,MIC,"[9]; Corning TC, MHB -T80",32 to 64 µg/mL
